Laboratory results from article PMC6348446 (Journal of Medicinal Chemistry, 2018).

Target: T1, BRD7 (Homo sapiens, UniProt Q9NPI1)
T1 construct: Western blot analysis of BRD9 and BRD7 levels after treatment of HeLa cells; endogenous in cells; host or cells: HeLa
T1 sequence (Q9NPI1 1-651): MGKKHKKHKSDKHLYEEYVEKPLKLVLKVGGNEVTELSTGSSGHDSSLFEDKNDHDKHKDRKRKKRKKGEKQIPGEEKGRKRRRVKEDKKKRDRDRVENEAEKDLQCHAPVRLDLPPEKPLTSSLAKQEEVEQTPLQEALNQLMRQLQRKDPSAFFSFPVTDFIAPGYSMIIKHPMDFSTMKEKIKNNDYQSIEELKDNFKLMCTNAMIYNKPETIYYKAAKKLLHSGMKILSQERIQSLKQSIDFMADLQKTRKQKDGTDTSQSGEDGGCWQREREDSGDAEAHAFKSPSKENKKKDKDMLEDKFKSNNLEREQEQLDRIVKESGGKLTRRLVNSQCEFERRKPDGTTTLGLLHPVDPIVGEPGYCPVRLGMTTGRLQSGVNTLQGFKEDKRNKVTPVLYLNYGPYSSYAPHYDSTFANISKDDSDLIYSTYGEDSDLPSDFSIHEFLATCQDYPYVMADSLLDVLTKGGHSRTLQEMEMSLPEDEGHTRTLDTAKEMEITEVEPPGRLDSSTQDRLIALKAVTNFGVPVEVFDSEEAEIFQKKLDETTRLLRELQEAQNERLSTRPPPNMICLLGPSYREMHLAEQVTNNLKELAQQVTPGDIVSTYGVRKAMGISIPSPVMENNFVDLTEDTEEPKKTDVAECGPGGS
Assay: Western blot of BRD7 levels in RI-1 cells after compound treatment
Format: cell-based
Settings: for BRD7 degradation: 4 h
Protocol: HeLa and Hek293 cells were seeded at either 0.3 × 10^6 or 0.5 × 10^6 cells per well in 6-well plate in 2 mL of medium. At 80% confluency, cells were treated with compounds at the desired concentration, with final DMSO concentration of 0.1% v/v. Cells were incubated at 37 °C and 5% of CO2 for the desired time before harvesting. For protein extraction from adherent cells, cells were washed twice with DPBS (Gibco) and lysed with RIPA buffer (Sigma-Aldrich), supplemented with cOmplete Mini EDTA-free protease inhibitor cocktail (Roche). Insoluble material was removed by centrifugation at 14 000 rpm for 15 min at 4 °C. Supernatant was collected and protein concentration was quantified by Bradford assay (Thermo Scientific no. 23200, mean of two replicates). For RI-1 cells, (1–1.5) × 10^6 cells/mL were seeded in 6-well plate in 2 mL of medium. The day after, cells were treated with compounds at the desired concentration, with final DMSO concentration of 0.1% v/v. Before harvesting, cells were incubated at 37 °C and 5% CO2 for the desired time. Cells were washed twice with DPBS (Gibco) and lysed with RIPA buffer (Sigma-Aldrich), supplemented with cOmplete Mini EDTA-free protease inhibitor cocktail (Roche). Lysates were sonicated (10 s) and centrifuged at 14 000 rpm for 20 min at 4 °C. Supernatant was collected, and protein concentration was quantified by Bradford assay (mean of two replicates). For EOL-1 and A-204 cell line, 20 000 cells were seeded in 300 μL per well in a 24-well plate and incubated at 37 °C overnight. Compounds were added from DMSO stock solution using a digital dispenser D300 (Tecan), normalizing for added DMSO, and cells were incubated at 37 °C for 18 h. Medium was removed, and cells were washed with PBS and lysed in 80 μL of lysis buffer (1% Triton, 350 mM KCl, 10 mM Tris, pH 7,4, phosphatase-protease inhibitor cocktail (Thermo Scientific no. 1861281), 10 mM DTT, Benzonase 0.5 μL/ml (Novagen no. 70746 10KU, 25 U/μL)) for 30 min on ice before insoluble debris was pelleted by centrifugation.
Cells were seeded in 6-well plates with 5 × 10^5 cells per well in 2 mL of complete medium to aim for 80% confluence on the day of treatment. At time zero, ML4924 was added at final concentration of 3 μM with 0.1% v/v of DMSO. DMSO was added to the remaining wells in order to match concentration of vehicle in all wells. […]
Proteins were resolved by SDS–PAGE on NuPage 4–12% Bis-Tris Midi Gel (Invitrogen) and transferred to Amersham Protran 0.45 NC nitrocellulose membrane (GE Healthcare) using wet transfer. […] ImageJ software was used for band quantification, and the last was reported as relative amount as ratio of each protein band relative to the lane’s loading control. […]

BRD7 degradation (100 nM) | decrease of BRD7 level (100 nM, 30 min) | concentration window of maximal protein degradation of BRD7 (2 and 8 h) [µM] | SMILES
no degradation |  |  | COc1cc(-c2cn(C)c(=O)c3cnccc23)cc(OC)c1CN1CCN(CCCCCOc2cc(-c3scnc3C)ccc2CNC(=O)[C@@H]2C[C@H](O)CN2C(=O)[C@@H](NC(=O)C2(F)CC2)C(C)(C)C)CC1 [cisVZ185]
more than 90% | more than 50% | 0.1 to 1 | COc1cc(-c2cn(C)c(=O)c3cnccc23)cc(OC)c1CN1CCN(CCCCCOc2cc(-c3scnc3C)ccc2CNC(=O)[C@@H]2C[C@@H](O)CN2C(=O)[C@@H](NC(=O)C2(F)CC2)C(C)(C)C)CC1 [Compound 51, (2S,4R)-N-(2-((5-(4-(2,6-Dimethoxy-4-(2-methyl-1-oxo-1,2-dihydro-2,7-naphthyridin-4-yl)benzyl)piperazin-1-yl)pentyl)oxy)-4-(4-methylthiazol-5-yl)benzyl)-1-((S)-2-(1-fluorocyclopropane-1-carboxamido)-3,3-dimethylbutanoyl)-4-hydroxypyrrolidine-2-carboxamide]
